This is an account of results in PubChem BioAssay (NCI).

What all share (experiment): NCI anticancer screen, dose series, 48 h
Test [1] deals with HS 578T breast.
Test [2] deals with SK-MEL-28 melanoma.
For test [3], the system named is TK-10 renal.
The test system of test [4] is EKVX NSCLC.
In test [5] the test system is COLO 205 colon.
In test [6] the test system is LOX IMVI melanoma.
For test [7], the system named is OVCAR-8 ovarian.
Test [8] has as its system PC-3 prostate.
Test [9] relates to HOP-62 NSCLC.
The subject of test [10] is 786-0 renal.

Molecules are shown by their SMILES. “And” between values parts separate entries of the source, which are not always exact repeats. Identical values can stand only once.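 Dose response: 5 concentrations. Exposure: 48 h. Format: 96-well plates. Endpoint: linear interpolation; highest concentration if not reached. At the GI50, growth is halved. TGI: concentration producing complete growth inhibition.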 Where only a bound is given, the exact number is not on record here.

Turning to `O=C1CCc2ccccc2O1`, the TGI in [1], in test [2], in test [3], in test [4], in test [5] and in test [6] was above 100 µM in each case. Further, the TGI in test [7], in test [8], in test [9] and in test [10] was above 100 µM throughout.

Consider `O=C1C(c2c(O)[nH]c3ccc(I)cc23)=Nc2ccccc21`, for which the TGI in [1] was above 100 µM; in test [2] it was above 86.3 µM; in test [3] it was 17.9 µM; in test [4], above 49.4 µM; in [5] it was above 100 µM; in [6] it was 34.4 µM. The TGI in test [7] is 4.74 µM; in test [8], 9.4 µM; in test [9], 30 µM; in test [10] it was 4.39 µM.

For `CC1(C)OC2[C@@H](CO[C@@]3([C@H]4OC(C)(C)O[C@@H]4CO)OC(C)(C)O[C@@H]23)O1` (stereo not given in full), the TGI in test [1], in test [2], in test [3], in test [4], in test [5] and in test [6] was above 100 µM in each case. In addition, the TGI in test [7], in test [8], in test [9] and in test [10] was above 100 µM throughout.

Turning to `CCOC(=O)C(NC(=O)c1ccccc1)(Nc1ccc(S(=O)(=O)Nc2ccc(OC)nn2)cc1)C(F)(F)F` (stereo not given), the TGI in test [1], in test [2], in test [3], in test [4], in [5] and in test [6] was above 100 µM in each case. Besides, the TGI in test [7], in [8], in test [9] and in [10] was above 100 µM each time.

For `CCN(CCN(CC)C(=O)NC)C(=O)NC`, the TGI in [1], in test [2], in [3], in [4], in test [5] and in test [6] was above 100 µM throughout. For the same compound, the TGI in test [7], in test [8], in [9] and in test [10] was above 100 µM throughout.

In the case of `NC(CS)C(=O)NCCNc1ccc(NCCNC(=O)C(N)CS)c2c1C(=O)c1c(O)ccc(O)c1C2=O` (stereo not given), the TGI in [1] is 0.615 µM; in test [2], 2 µM and 1.81 µM; in test [3] it was 3.58 µM and 0.49 µM; in test [4], 1.05 µM and 0.274 µM; in [5], 1.83 µM and 1.12 µM; in test [6], 0.205 µM and 0.165 µM. For the same compound, the TGI in test [7] is 0.574 µM and 0.174 µM; in test [8], 1.13 µM; in [9], 0.03 µM and 0.0483 µM; in [10], 0.0831 µM and 0.0438 µM. The GI50 in test [2] is 0.43 µM; in test [3], 0.08 µM; in test [4] it was 0.0538 µM; in [5], 0.136 µM; in test [6], 0.0149 µM; in test [7], 0.0108 µM.

Take `Cc1cc(N)c2cc(NC(=O)Nc3ccc4nc(C)cc(N)c4c3)ccc2n1`: the TGI in test [1], in [2], in test [3], in test [4], in [5] and in [6] was above 100 µM in each case. Also, the TGI in test [7], in [8], in test [9] and in test [10] was above 100 µM each time.

`CCOP(=O)(OCC)C(C)(CC)/N=C(\N)NC#N` (stereo not given): the TGI in [1], in [2], in test [3], in [4], in test [5] and in [6] was above 100 µM in each case. The TGI in test [7], in [8], in test [9] and in test [10] was above 100 µM each time.

As to `O=C1C=CC(=O)[C@H]2C3C=CC(C4C3C3(Cl)C(Cl)=C(Cl)[C@]4(Cl)C3(Cl)Cl)[C@@H]12` (stereo not given in full), the TGI in [1] was determined as 31.2 µM; in test [2], 18.6 µM; in test [3] it was 30.5 µM; in test [4], 15 µM; in test [5], 19.1 µM; in test [6], 11.7 µM. The TGI in [7] was found to be 20.7 µM; in [8] it was 16.4 µM; in test [9], 31.1 µM; in test [10], 18.4 µM.

Turning to `O=C1C(=O)N(C23CC4CC(CC(C4)C2)C3)C(=S)N1c1ccccc1`, the TGI in test [1], in [2], in test [3], in [4], in test [5] and in test [6] was above 100 µM in each case. Also, the TGI in test [7], in test [8], in [9] and in test [10] was above 100 µM in each case.

As to `CP(=O)(O)C(N)c1ccccc1` (stereo not given), the TGI in test [1], in test [2], in test [3], in test [4], in test [5] and in [6] was above 100 µM throughout. The TGI in test [7], in [8], in test [9] and in [10] was above 100 µM in each case.

Consider `Nc1nc(N)c2nc(CNc3ccc(C(=O)NC(CCNC(=O)c4ccccc4C(=O)O)C(=O)O)cc3)cnc2n1` (stereo not given), for which the GI50 was 0.49 µM in [1]; 0.0214 µM in test [4]; 0.00439 µM in test [6]; 0.00813 µM in test [7]; 0.00666 µM in test [8]; 0.0635 µM in test [9]. The TGI in [1], in test [2], in test [3], in test [4], in [5] and in test [6] was above 100 µM throughout. For the same compound, the TGI in test [7], in test [8], in test [9] and in [10] was above 100 µM in each case.

As to `COc1ccccc1[C@@H]1CCC2CC[C@@H](c3ccccc3OC)[N+]21Cc1ccccc1` (stereo not given in full), the TGI in test [1] worked out at 35.8 µM; in test [2], 22.3 µM; in [3] it was 20.3 µM; in test [4], 1.86 µM; in [5], 1.84 µM; in test [6] it was 13.2 µM. For the same compound, the TGI in test [7] worked out at 13.8 µM; in test [8] it was 7.94 µM; in test [9], 13.3 µM; in [10] it was 15.4 µM.

Regarding `COc1cc(/C=C/c2ccc(S(N)(=O)=O)cc2)cc(OC)c1`, the GI50 in test [1] is 20.1 µM; in test [6], 18.2 µM; in [7] it was 37.9 µM. Further, the TGI in test [1] came to 48.5 µM; in [2], 56.8 µM; in test [3], 53.9 µM; in test [4], 86 µM; in test [5] it was 32.4 µM; in test [6], 34 µM. In addition, the TGI in test [7] is above 100 µM; in test [8] it was 56.1 µM; in test [9] it was 62.7 µM; in [10], 50.5 µM.

In the case of `COc1ccc(Oc2nc3c(N)cc(C(F)(F)F)cc3nc2-c2ccccc2)cc1`, the TGI in test [1] was 43 µM; in test [2], above 100 µM; in [3], above 100 µM; in [4], 28.9 µM; in [5] it was 25.6 µM; in test [6], 53.6 µM. In addition, the TGI in test [7] is above 100 µM; in [8], 59.6 µM; in [9], 49.5 µM; in test [10] it was 56.4 µM.

In the case of `CCc1n[nH]c(=O)n1N=C(c1ccccc1)c1ccccc1`, the TGI is above 100 µM in test [1]; above 100 µM in test [2]; above 100 µM in [3]; 93.3 µM in test [4]; above 100 µM in [5]; above 100 µM in [6]. Besides, the TGI in [7], in [8], in test [9] and in [10] was above 100 µM each time.

For the compound `CN(C)CCCN=c1c2ccccc2n(C)c2[nH]c(=O)n(C)c(=O)c12`, the TGI came out at 52.6 µM in test [1]; 26.8 µM in test [2]; 25.7 µM in [3]; 28.9 µM in test [4]; 11.9 µM in [5]; 39.1 µM in test [6]. Besides, the TGI was above 100 µM in test [7], 22.4 µM in test [8], 29.9 µM in test [9] and above 64.8 µM in test [10].

With `COc1cc(C2c3cc4c(cc3OC(NNc3ccccc3)C2C)OCO4)cc(OC)c1O` (stereo not given), the TGI came out at 12 µM in test [1]; 21.3 µM in [2]; 23.6 µM in test [3]; 69.9 µM in test [4]; 17.9 µM in test [5]; 19 µM in [6]. In addition, the TGI came out at 23.8 µM in test [7], 14.9 µM in [8], 33.1 µM in [9] and 15.6 µM in test [10].

For the compound `CC(=O)OC12OC(C)(C3C(=O)N(c4ccccc4)C(=O)C31)N(c1ccccc1)C2=O` (stereo not given), the TGI in test [1], in test [2], in test [3], in test [4], in test [5] and in test [6] was above 100 µM throughout. In addition, the TGI in [7], in test [8], in test [9] and in [10] was above 100 µM throughout.

As to `O=c1cc(NNc2cccc(F)c2)[nH]c(=S)[nH]1`, the TGI in [1], in [2], in test [3], in [4], in test [5] and in test [6] was above 100 µM in each case. The TGI in [7], in [8], in test [9] and in [10] was above 100 µM in each case.

As for `CCOC(=O)[C@H](CO)Nc1c(O)c2c(c(O)c1Cl)C(=O)C=CC2=O`, the TGI in test [1], in test [2], in test [3], in [4], in test [5] and in test [6] was above 10 µM in each case. Further, the TGI in test [7], in [8], in test [9] and in [10] was above 10 µM each time.
